Legend:
human brain hexokinase [1] = target: T1, human brain hexokinase (Homo sapiens, UniProt P19367); conditions: read-out: Km for glucose utilization by brain hexokinase, Michaelis constant; cited from earlier work
T1 sequence (P19367 1-917): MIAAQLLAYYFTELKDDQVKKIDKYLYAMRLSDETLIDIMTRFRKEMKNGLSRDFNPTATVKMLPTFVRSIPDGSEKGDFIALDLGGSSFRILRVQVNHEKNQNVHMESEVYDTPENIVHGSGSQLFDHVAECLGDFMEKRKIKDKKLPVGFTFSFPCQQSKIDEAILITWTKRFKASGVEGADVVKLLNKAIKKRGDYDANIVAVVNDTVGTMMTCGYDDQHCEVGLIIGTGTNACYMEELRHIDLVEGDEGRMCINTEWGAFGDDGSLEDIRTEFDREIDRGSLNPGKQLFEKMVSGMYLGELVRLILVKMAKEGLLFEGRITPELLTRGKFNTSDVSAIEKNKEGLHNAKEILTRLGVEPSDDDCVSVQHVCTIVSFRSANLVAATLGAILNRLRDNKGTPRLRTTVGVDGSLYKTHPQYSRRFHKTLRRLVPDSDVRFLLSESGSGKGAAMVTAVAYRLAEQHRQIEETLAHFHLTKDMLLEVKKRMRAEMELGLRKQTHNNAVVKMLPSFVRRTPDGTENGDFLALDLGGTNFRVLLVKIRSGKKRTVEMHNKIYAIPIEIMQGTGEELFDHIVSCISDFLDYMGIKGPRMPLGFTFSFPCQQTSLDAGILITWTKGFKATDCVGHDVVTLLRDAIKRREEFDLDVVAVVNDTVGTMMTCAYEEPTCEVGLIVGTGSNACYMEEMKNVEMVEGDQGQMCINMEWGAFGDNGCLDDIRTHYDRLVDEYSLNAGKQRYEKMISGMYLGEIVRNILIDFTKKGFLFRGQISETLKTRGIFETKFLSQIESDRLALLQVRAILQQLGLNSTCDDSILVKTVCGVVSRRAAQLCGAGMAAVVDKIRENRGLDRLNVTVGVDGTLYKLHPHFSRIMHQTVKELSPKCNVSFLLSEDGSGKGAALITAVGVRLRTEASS

human brain hexokinase [2] = target: T1, human brain hexokinase; test: Calculated glucose utilization by brain hexokinase (v/Vmax, Michaelis-Menten equation with competitive inhibitor); design: from tissue; host or cells: human brain
Text: (§1) The appropriate amount of glucose to be combined with or to be coadministered with a selected iodo-benzamido-glucopyranose contrast agent can be determined by knowing the hexokinase inhibition constant (Ki) for a selected contrast agent. The ratio of the activity of an enzyme to its maximal activity (Vmax) in the presence of competitive inhibitors is given by the following formula: v/Vmax=[S]/([S]+Km(1+([I]/Ki)), where [S] is glucose concentration, [I] is inhibitor concentration, Km is the Michaelis constant for glucose utilization of hexokinase, and Ki is the inhibition constant for the contrast agent. With no inhibitor present, glucose utilization by human brain hexokinase is represented by a v/Vmax of 0.99 (the Km for glucose utilization by brain hexokinase is 0.05 mM, and typical spinal fluid contains 4 mM glucose).
In a routine myelographic procedure, 780 mM (300 mg I/ml) metrizamide is administered. Substituting this variable into the above Michaelis-Menten equation, one finds a v/Vmax of only 0.25. […]
However because metrizamide is a relatively weak competitive inhibitor of glucose, a small increase in glucose concentration can restore hexokinase-glucose utilization to an effective level. […] By solving for [S] it is calculated that an initial concentration of about 100 mM glucose is needed to counteract the effects of an intrathecal injection of 780 mM metrizamide. […]

human brain hexokinase [3] = target: T1, human brain hexokinase; test: Inhibition constant for human brain hexokinase; type: biochemical; design: from tissue; host or cells: human brain; conditions: with respect to human brain hexokinase; competitive with glucose
Text: as §1
In a routine myelographic procedure, 780 mM (300 mg I/ml) metrizamide is administered. Substituting this variable into the above Michaelis-Menten equation, one finds a v/Vmax of only 0.25. This value represents a significant reduction in glucose utilization. Even if the concentration of metrizamide were diluted tenfold by the time it reached the cerebral surfaces, a v/Vmax of only 0.77 is predicted. Reductions in glucose utilization ranging from 0.6 to 0.7 have been associated with varieties of stupor and coma in humans.

patients = conditions: cerebrospinal myelography patients; cited from earlier work
[4] = reconstituted according to certain directions, at body temperature; cited from earlier work
Rat Brain Hexokinase = test: Competitive inhibition of rat brain hexokinase; type: biochemical; conditions: J. Neurochemistry 37: 1000 (1981)
Text: Rather than relying on indirect manipulative steps to avoid contrast agent diffusion to brain, there is a need for an inexpensive, reliable, direct mechanism to avoid central nervous system complications induced by the iodo-benzamido-glucopyranose x-ray contrast agents. Following intense pharmacological research into the biochemical activity of the contrast agents, typified by metrizamide, Applicant has discovered that such compounds interfere with glycolysis metabolism in the brain. […] This interference with the utilization of glucose, which normally serves as the obligatory energy source in the brain, may explain some of the depressive effects of intrathecally administered metrizamide and related compounds.

Compound	Km (human brain hexokinase [1]) [µM]	v/Vmax (glucose utilization) (human brain hexokinase [2]; 780 mM (300 mg I/ml) metrizamide, routine myelographic procedure, typical spinal fluid 4 mM glucose)	v/Vmax (glucose utilization) (human brain hexokinase [2]; metrizamide concentration diluted tenfold by the time it reaches the cerebral surfaces)	Ki (human brain hexokinase [3]) [µM]	fraction of patients treated with temporary confusional state and EEG deterioration (patients)	specific gravity [4]	mode of hexokinase inhibition (Rat Brain Hexokinase)
OC[C@H]1OC(O)[C@H](O)[C@@H](O)[C@@H]1O (stereo partly shown) [glucose]	50	–	–	–	–	–	–
CC(=O)Nc1c(I)c(C(=O)N[C@H]2C(O)O[C@H](CO)[C@@H](O)[C@@H]2O)c(I)c(N(C)C(C)=O)c1I (stereo partly drawn) [metrizamide, 2-[3-Acetamido-2,4,6-triiodo-5-(N-methylacetamido)benzamido]-2-deoxy-D-glucopyranose]	–	0.25	0.77	2500	about one-third	1.184	competes with glucose to inhibit hexokinase activity

Reference: patent publication US4455292A, “Radiological contrast composition and methods” (Board of Regents, the University of Texas System, priority 1982, dated 1984)
